{"source": "patent US20240016942A1", "about": "“STAT DEGRADERS AND USES THEREOF” (Kymera Therapeutics, Inc., priority 2020, published 2024)", "target": "T1, STAT3 (Homo sapiens, UniProt P40763)", "T1 construct": "expressed in transfected cells; host or cells: A549", "T1 sequence (P40763 whole entry)": "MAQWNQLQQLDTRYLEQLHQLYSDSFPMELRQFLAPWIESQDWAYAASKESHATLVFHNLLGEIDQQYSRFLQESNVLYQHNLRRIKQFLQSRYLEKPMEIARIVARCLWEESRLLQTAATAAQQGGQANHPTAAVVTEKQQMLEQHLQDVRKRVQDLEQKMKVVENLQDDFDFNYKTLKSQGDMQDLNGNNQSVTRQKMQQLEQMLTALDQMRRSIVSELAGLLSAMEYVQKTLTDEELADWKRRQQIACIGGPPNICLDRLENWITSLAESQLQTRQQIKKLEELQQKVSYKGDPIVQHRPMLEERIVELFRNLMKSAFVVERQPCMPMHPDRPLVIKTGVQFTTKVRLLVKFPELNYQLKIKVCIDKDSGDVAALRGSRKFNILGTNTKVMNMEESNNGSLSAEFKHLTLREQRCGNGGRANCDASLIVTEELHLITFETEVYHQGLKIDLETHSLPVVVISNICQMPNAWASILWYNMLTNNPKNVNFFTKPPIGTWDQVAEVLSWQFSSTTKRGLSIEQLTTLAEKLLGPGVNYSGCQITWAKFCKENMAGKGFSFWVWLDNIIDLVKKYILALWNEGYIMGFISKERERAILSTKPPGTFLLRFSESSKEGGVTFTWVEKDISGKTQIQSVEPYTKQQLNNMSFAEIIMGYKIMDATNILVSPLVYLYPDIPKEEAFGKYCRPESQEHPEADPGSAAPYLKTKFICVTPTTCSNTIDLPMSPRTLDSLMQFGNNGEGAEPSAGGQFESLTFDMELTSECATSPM", "experiment": "STAT3 HiBiT degradation assay (Nano-Glo HiBiT lytic detection) in transfected A549 cells", "format": "cell-based", "procedure,_shortened": "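Transfected A549 cells (~2000/well) treated 24 h at 37° C with compound in 3-fold, 10-point dilution series. HiBiT-tagged STAT3 remaining measured by Nano-Glo HiBiT lytic luminescence, normalised to negative and positive controls; DC50 from four-parameter curve fit.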", "key": {"[1]": {"conditions": "24 h compound incubation, read-out: STAT3 HiBIT A549 degradation 24 h: Average external-Abs DC50"}, "[2]": {"conditions": "read-out: STAT3 HiBIT A549 degradation 24 h: Average external-Abs DC50, 24 h compound incubation"}}, "note": "Where two headings read alike, the source gives them in different places.", "data": [{"smiles": "Cn1c(=O)n(C2CCC(=O)NC2=O)c2ccc(C[C@H]3CC[C@H](CC(=O)N4CC[C@H]5CC[C@@H](C(=O)N[C@@H](CCC(N)=O)C(=O)NCc6ccc(S(C)(=O)=O)cc6)N5C(=O)[C@@H](NC(=O)c5cc6cc(C(=O)P(=O)(O)O)ccc6[nH]5)C4)CC3)cc21", "note": "(some centres unmarked) [I-74]", "values": [{"measurement": "DC50", "setting": "[1]", "value": "10 to 100", "unit": "nM"}]}, {"smiles": "Cn1c(=O)n(C2CCC(=O)NC2=O)c2ccc(C[C@H]3CC[C@@H](CC(=O)N4CC[C@H]5CC[C@@H](C(=O)N[C@@H](CCC(N)=O)C(=O)NCc6ccc(S(C)(=O)=O)cc6)N5C(=O)[C@@H](NC(=O)c5cc6cc(C(=O)O)ccc6[nH]5)C4)CC3)cc21", "note": "(stereo partly drawn) [I-75, 2-[[(5S,8S,10aR)-8-[[(1S)-3-carbamoyl-1-[[(4-methanesulfonylphenyl)methyl]carbamoyl]propyl]carbamoyl]-6-oxo-3-[2-[(1s,4s)-4-[[1-(2,6-dioxopiperidin-3-yl)-3-methyl-2-oxo-1,3-benzodiazol-5-yl]methyl]cyclohexyl]acetyl]-octahydropyrrolo[1,2-a][1,5]diazocin-5-yl]carbamoyl]-1H-indole-5-carboxylic acid]", "values": [{"measurement": "DC50", "setting": "[1]", "value": "> 1000", "unit": "nM"}]}, {"smiles": "Cn1c(=O)n(C2CCC(=O)NC2=O)c2ccc(CCCCCCC(=O)N3CC[C@H]4CC[C@@H](C(=O)N[C@@H](CCC(N)=O)C(=O)NCc5ccc(S(C)(=O)=O)cc5)N4C(=O)[C@@H](NC(=O)c4cc5cc(C(=O)P(=O)(O)O)ccc5[nH]4)C3)cc21", "note": "(some centres unmarked) [I-76]", "values": [{"measurement": "DC50", "setting": "[1]", "value": "10 to 100", "unit": "nM"}]}, {"smiles": "CC(=O)N1CC[C@H]2CC[C@@H](C(=O)N[C@@H](CCC(N)=O)COc3cc(F)cc(CCCC(=O)N[C@H](C(=O)N4C[C@H](O)C[C@H]4C(=O)N[C@@H](C)c4ccc(-c5scnc5C)cc4)C(C)(C)C)c3Cl)N2C(=O)[C@@H](NC(=O)c2cc3cc(C(=O)P(=O)(O)O)ccc3[nH]2)C1", "note": "[I-77]", "values": [{"measurement": "DC50", "setting": "[1]", "value": "< 10", "unit": "nM"}]}, {"smiles": "CC(=O)N1CC[C@H]2CC[C@@H](C(=O)N[C@@H](CCC(N)=O)COc3cc(C)cc(CCCC(=O)N[C@H](C(=O)N4C[C@H](O)C[C@H]4C(=O)N[C@@H](C)c4ccc(-c5scnc5C)cc4)C(C)(C)C)c3F)N2C(=O)[C@@H](NC(=O)c2cc3cc(C(=O)P(=O)(O)O)ccc3[nH]2)C1", "note": "[I-78]", "values": [{"measurement": "DC50", "setting": "[1]", "value": "< 10", "unit": "nM"}]}, {"smiles": "CC(=O)N1CC[C@H]2CC[C@@H](C(=O)N[C@@H](CCC(N)=O)COc3cc(F)cc(CCCC(=O)N[C@H](C(=O)N4C[C@H](O)C[C@H]4C(=O)N[C@@H](C)c4ccc(-c5scnc5C)cc4)C(C)(C)C)c3F)N2C(=O)[C@@H](NC(=O)c2cc3cc(C(=O)P(=O)(O)O)ccc3[nH]2)C1", "note": "[I-79]", "values": [{"measurement": "DC50", "setting": "[1]", "value": "< 10", "unit": "nM"}]}, {"smiles": "CC(=O)N1CC[C@H]2CC[C@@H](C(=O)N[C@@H](CCC(N)=O)COc3cc(C)cc(CCCC(=O)N[C@H](C(=O)N4C[C@H](O)C[C@H]4C(=O)N[C@@H](C)c4ccc(-c5scnc5C)cc4)C(C)(C)C)c3Cl)N2C(=O)[C@@H](NC(=O)c2cc3cc(C(=O)P(=O)(O)O)ccc3[nH]2)C1", "note": "[I-80]", "values": [{"measurement": "DC50", "setting": "[1]", "value": "< 10", "unit": "nM"}]}, {"smiles": "Cn1c(=O)n(C2CCC(=O)NC2=O)c2ccc(CCCCCCc3cc4c5c(c3)C[C@@H](C(=O)N[C@@H](CCC(N)=O)C(=O)NCc3ccc(S(C)(=O)=O)cc3)N5C(=O)[C@@H](NC(=O)c3cc5cc(C(=O)P(=O)(O)O)ccc5[nH]3)CC4)cc21", "note": "(stereo partly drawn) [I-81, (2-(((3S,6S)-6-(((S)-5-amino-1l-((4-(methylsulfonyl)benzyl)amino)-1,5-dioxopentan-2-yl)carbamoyl)-9-(6-(1-(2,6-dioxopiperidin-3-yl)-3-methyl-2-oxo-2,3-dihydro-1H-benzo[d]imidazol-5-yl)hexyl)-4-oxo-1,2,3,4,6,7-hexahydroazepino[3,2,1-hi]indol-3-yl)carbamoyl)-1H-indole-5-carbonyl)phosphonic acid]", "values": [{"measurement": "DC50", "setting": "[1]", "value": "10 to 100", "unit": "nM"}]}, {"smiles": "CC(=O)N1CC[C@H]2CC[C@@H](C(=O)N[C@@H](CCC(N)=O)COc3cccc(CCCC(=O)N[C@H](C(=O)N4C[C@H](O)C[C@H]4C(=O)N[C@@H](C)c4ccc(-c5scnc5C)cc4)C(C)(C)C)c3Cl)N2C(=O)[C@@H](NC(=O)c2cc3cc(C(F)(F)P(=O)(O)O)ccc3s2)C1", "note": "[I-83]", "values": [{"measurement": "DC50", "setting": "[2]", "value": "> 1000", "unit": "nM"}]}, {"smiles": "COC(=O)N1CC[C@H]2CC[C@@H](C(=O)N[C@@H](CCC(N)=O)COc3cccc(CCCC(=O)N[C@H](C(=O)N4C[C@H](O)C[C@H]4C(=O)N[C@@H](C)c4ccc(-c5scnc5C)cc4)C(C)(C)C)c3Cl)N2C(=O)[C@@H](NC(=O)c2cc3cc(C(F)(F)P(=O)(O)O)ccc3[nH]2)C1", "note": "[I-84]", "values": [{"measurement": "DC50", "setting": "[1]", "value": "> 1000", "unit": "nM"}]}, {"smiles": "COC(=O)N1CC[C@H]2CC[C@@H](C(=O)N[C@@H](CCC(N)=O)COc3cccc(CCCC(=O)N[C@H](C(=O)N4C[C@H](O)C[C@H]4C(=O)N[C@@H](C)c4ccc(-c5scnc5C)cc4)C(C)(C)C)c3Cl)N2C(=O)[C@@H](NC(=O)c2cc3cc(C(=O)P(=O)(O)O)ccc3s2)C1", "note": "[I-86]", "values": [{"measurement": "DC50", "setting": "[2]", "value": "> 1000", "unit": "nM"}]}, {"smiles": "COC(=O)N1CC[C@H]2CC[C@@H](C(=O)N[C@@H](CCC(N)=O)COc3cccc(CCCC(=O)N[C@H](C(=O)N4C[C@H](O)C[C@H]4C(=O)N[C@@H](C)c4ccc(-c5scnc5C)cc4)C(C)(C)C)c3Cl)N2C(=O)[C@@H](NC(=O)c2cc3cc(C(=O)P(=O)(O)O)ccc3[nH]2)C1", "note": "[I-87]", "values": [{"measurement": "DC50", "setting": "[1]", "value": "> 1000", "unit": "nM"}]}, {"smiles": "Cc1ncsc1-c1ccc([C@H](C)NC(=O)[C@@H]2C[C@@H](O)CN2C(=O)[C@@H](NC(=O)CCCc2cccc(OC[C@H](CCC(N)=O)NC(=O)[C@@H]3CC[C@@H]4CCCC[C@H](NC(=O)c5cc6cc(C(=O)P(=O)(O)O)ccc6s5)C(=O)N43)c2Cl)C(C)(C)C)cc1", "note": "[I-88]", "values": [{"measurement": "DC50", "setting": "[2]", "value": "> 1000", "unit": "nM"}]}, {"smiles": "Cc1ncsc1-c1ccc([C@H](C)NC(=O)[C@@H]2C[C@@H](O)CN2C(=O)[C@@H](NC(=O)CCCc2cccc(OC[C@H](CCC(N)=O)NC(=O)[C@@H]3CC[C@@H]4CCCC[C@H](NC(=O)c5cc6cc(C(F)(F)P(=O)(O)O)ccc6s5)C(=O)N43)c2Cl)C(C)(C)C)cc1", "note": "[I-89]", "values": [{"measurement": "DC50", "setting": "[2]", "value": "> 1000", "unit": "nM"}]}, {"smiles": "CC(C)c1ccc(CNC(=O)[C@H](CCC(=O)O)NC(=O)[C@@H]2CC[C@@H]3CCN(C(=O)[C@H]4CC[C@@H](CCc5ccc6c(c5)n(C)c(=O)n6C5CCC(=O)NC5=O)CC4)C[C@H](NC(=O)c4cc5cc(C(=O)P(=O)(O)O)ccc5[nH]4)C(=O)N32)cc1", "note": "(stereo partly drawn) [I-96, (4S)-4-[[(5S,8S,10aR)-6-oxo-5-[5-(phosphonocarbonyl)-1H-indole-2-amido]-3-[(1s,4s)-4-[2-[1-(2,6-dioxopiperidin-3-yl)-3-methyl-2-oxo-1,3-benzodiazol-5-yl]ethyl]cyclohexanecarbonyl]-octahydropyrrolo[1,2-a][1,5]diazocin-8-yl]formamido]-4-[[(4-isopropylphenyl)methyl]carbamoyl]butanoic acid]", "values": [{"measurement": "DC50", "setting": "[1]", "value": "> 1000", "unit": "nM"}]}, {"smiles": "CC(C)c1ccc(CNC(=O)[C@H](CCC(N)=O)NC(=O)[C@@H]2CC[C@@H]3CCN(C(=O)[C@H]4CC[C@@H](CCc5ccc6c(c5)n(C)c(=O)n6C5CCC(=O)NC5=O)CC4)C[C@H](NC(=O)c4cc5cc(C(F)(F)P(=O)(O)O)ccc5s4)C(=O)N32)cc1", "note": "(some centres unmarked) [I-97]", "values": [{"measurement": "DC50", "setting": "[1]", "value": "> 1000", "unit": "nM"}]}, {"smiles": "CNC(=O)N1CC[C@H]2CC[C@@H](C(=O)N[C@@H](CCC(N)=O)COc3cccc(CCCC(=O)N[C@H](C(=O)N4C[C@H](O)C[C@H]4C(=O)N[C@@H](C)c4ccc(-c5scnc5C)cc4)C(C)(C)C)c3Cl)N2C(=O)[C@@H](NC(=O)c2cc3cc(C(F)(F)P(=O)(O)O)ccc3s2)C1", "note": "[I-98]", "values": [{"measurement": "DC50", "setting": "[1]", "value": "> 1000", "unit": "nM"}]}]}
